The test system of the assay is CD8F1 mice, subcutaneous mammary adenocarcinoma, T/C%. The experiment in a line: NCI In Vivo Anticancer Drug Screen. Data for tumor model Mammary Adenocarcinoma CD8F1 (subcutaneous) in CD8F1. The conditions noted are these: higher = larger tumour. Here is the method:
The antitumor activity of compounds was measured in mice bearing transplantable tumors. Survival or tumor size were measured and the results are expressed as the measurement made in the treated group (T) divided by the measurement made in the vehicle treated control group (C). The tumor model used in this assay is Mammary Adenocarcinoma CD8F1 (subcutaneous) in CD8F1

Setting [1] is: endpoint: median tumor weight (est.), dose: 12.5 mg/kg/injection, schedule: Q07DX005 (ip), vehicle: saline with Tween-80.
[2] abbreviates: endpoint: median tumor weight (est.), dose: 25.0 mg/kg/injection, schedule: Q07DX005 (ip), vehicle: saline with Tween-80.
[3] abbreviates: endpoint: median tumor weight (est.), dose: 50.0 mg/kg/injection, schedule: Q07DX005 (ip), vehicle: saline with Tween-80.

The text below walks through data of PubChem BioAssay AID220 (DTP/NCI, 2004).

Structures are written as SMILES. “And” between values parts separate entries of the source, which are not always exact repeats. Equal values may be shown once. Records with an inconclusive call do not appear.

Consider `c1ccc2c(NCCCCCCCCNc3c4ccccc4nc4ccccc34)c3ccccc3nc2c1`, for which the T/C is 72 % of control (endpoint: median tumor weight (est.), dose: 5.0 mg/kg/injection, schedule: Q07DX005 (ip), vehicle: Klucel (hydroxypropylcellulose) (HPC)); 56 % of control (endpoint: median tumor weight (est.), dose: 10.0 mg/kg/injection, schedule: Q07DX005 (ip), vehicle: Klucel (hydroxypropylcellulose) (HPC)); 57 % of control (endpoint: median tumor weight (est.), dose: 20.0 mg/kg/injection, schedule: Q07DX005 (ip), vehicle: Klucel (hydroxypropylcellulose) (HPC)); 46 % of control (endpoint: median tumor weight (est.), dose: 40.0 mg/kg/injection, schedule: Q07DX005 (ip), vehicle: Klucel (hydroxypropylcellulose) (HPC)).

As for `O=c1n(CC2CO2)c(=O)n(CC2CO2)n1CC1CO1` (stereo unspecified), the T/C (endpoint: median tumor weight change, dose: 62.5 mg/kg/injection, schedule: Q01DX001 (ip), vehicle: saline) is 29 % of control.

Take `C1CCC2OCCOCCOC3CCCCC3OCCOCCOC2C1` (stereo unspecified): the T/C was 90 % of control (endpoint: median tumor weight (est.), dose: 3.12 mg/kg/injection, schedule: Q07DX005 (ip), vehicle: Klucel (hydroxypropylcellulose) (HPC)); 55 % of control (endpoint: median tumor weight (est.), dose: 6.25 mg/kg/injection, schedule: Q07DX005 (ip), vehicle: Klucel (hydroxypropylcellulose) (HPC)); 70 % of control (endpoint: median tumor weight (est.), dose: 25.0 mg/kg/injection, schedule: Q07DX005 (ip), vehicle: Klucel (hydroxypropylcellulose) (HPC)); 83 % of control (endpoint: median tumor weight (est.), dose: 50.0 mg/kg/injection, schedule: Q07DX005 (ip), vehicle: Klucel (hydroxypropylcellulose) (HPC)).

As for `COc1cc2cc(c1Cl)N(C)C(=O)C[C@H](OC(=O)[C@H](C)N(C)C(C)=O)[C@]1(C)O[C@H]1[C@H](C)[C@@H]1C[C@@](O)(NC(=O)O1)[C@H](OC)C=C/C=C(\C)C2`, the T/C reads like this: (endpoint: median tumor weight (est.), dose: 0.03 mg/kg/injection, schedule: Q07DX005 (ip), vehicle: Klucel (hydroxypropylcellulose) (HPC)) 167 % of control; (endpoint: median tumor weight (est.), dose: 0.06 mg/kg/injection, schedule: Q07DX005 (ip), vehicle: Klucel (hydroxypropylcellulose) (HPC)) 151 % of control; (endpoint: median tumor weight (est.), dose: 0.12 mg/kg/injection, schedule: Q07DX005 (ip), vehicle: Klucel (hydroxypropylcellulose) (HPC)) 264 % of control; (endpoint: median tumor weight (est.), dose: 0.25 mg/kg/injection, schedule: Q07DX005 (ip), vehicle: Klucel (hydroxypropylcellulose) (HPC)) 188 % of control; (endpoint: median tumor weight (est.), dose: 62.0 micrograms/kg/injection, schedule: Q07DX005 (ip), vehicle: Klucel (hydroxypropylcellulose) (HPC)) 54 % of control; (endpoint: median tumor weight (est.), dose: 125.0 micrograms/kg/injection, schedule: Q07DX005 (ip), vehicle: Klucel (hydroxypropylcellulose) (HPC)) 77 % of control. For the same compound, the T/C runs as follows: (endpoint: median tumor weight (est.), dose: 250.0 micrograms/kg/injection, schedule: Q07DX005 (ip), vehicle: Klucel (hydroxypropylcellulose) (HPC)) 110 % of control; (endpoint: median tumor weight (est.), dose: 500.0 micrograms/kg/injection, schedule: Q07DX005 (ip), vehicle: Klucel (hydroxypropylcellulose) (HPC)) 93 % of control; (endpoint: median tumor weight change, dose: 125.0 micrograms/kg/injection, schedule: Q01DX001 (ip), vehicle: Klucel (hydroxypropylcellulose) (HPC)) 67 % of control; (endpoint: median tumor weight change, dose: 500.0 micrograms/kg/injection, schedule: Q01DX001 (ip), vehicle: Klucel (hydroxypropylcellulose) (HPC)) 29 % of control and 35 % of control; (endpoint: median tumor weight change, dose: 1000.0 micrograms/kg/injection, schedule: Q01DX001 (ip), vehicle: Klucel (hydroxypropylcellulose) (HPC)) 3 % of control and 21 % of control; (endpoint: median tumor weight change, dose: 2000.0 micrograms/kg/injection, schedule: Q01DX001 (ip), vehicle: Klucel (hydroxypropylcellulose) (HPC)) 12 % of control.

Consider `COC1=C(OC)C(=O)C(Sc2ccc3ccccc3c2)=CC1=O`, for which the T/C under setting [1] is 115 % of control; the T/C under setting [2] is 84 % of control; the T/C under setting [3] is 122 % of control; the T/C (endpoint: median tumor weight (est.), dose: 200.0 mg/kg/injection, schedule: Q07DX005 (ip), vehicle: saline with Tween-80) is 92 % of control.

Take `O=Cc1ccc([N+](=O)[O-])s1`: the T/C (endpoint: median tumor weight (est.), dose: 6.25 mg/kg/injection, schedule: Q07DX005 (ip), vehicle: saline with Tween-80) was 225 % of control; the T/C under setting [1] was 71 % of control; the T/C under setting [2] was 295 % of control; the T/C under setting [3] is 156 % of control.

In the case of `COC(=O)Nc1nc2ccc(C3(c4ccc(F)cc4)OCCO3)cc2[nH]1`, the T/C is, setting by setting: (endpoint: median tumor weight change, dose: 125.0 mg/kg/injection, schedule: Q01DX001 (ip), vehicle: saline) 99 % of control; (endpoint: median tumor weight change, dose: 125.0 mg/kg/injection, schedule: Q01DX001 (ip), vehicle: suspension in saline) 152 % of control; (endpoint: median tumor weight change, dose: 250.0 mg/kg/injection, schedule: Q01DX001 (ip), vehicle: suspension in saline) 67 % of control; (endpoint: median tumor weight change, dose: 500.0 mg/kg/injection, schedule: Q01DX001 (ip), vehicle: suspension in saline) 153 % of control; (endpoint: median tumor weight change, dose: 1000.0 mg/kg/injection, schedule: Q01DX001 (ip), vehicle: suspension in saline) 93 % of control.

Take `COc1cccc2c1C(=O)c1c(O)c3c(c(O)c1C2=O)CC(O)(C(=O)CO)CC3OC1CC(N)C(O)C(C)O1` (stereo unspecified): the T/C is 37 % of control (endpoint: median tumor weight (est.), dose: 12.0 mg/kg/injection, schedule: Q07DX006 (ip), vehicle: saline); 33 % of control (endpoint: median tumor weight (est.), dose: 20.0 mg/kg/injection, schedule: Q07DX005 (ip), vehicle: water); 18 % of control (endpoint: median tumor weight (est.), dose: 24.0 mg/kg/injection, schedule: Q07DX006 (ip), vehicle: saline); 33 % of control (endpoint: median tumor weight (est.), dose: 30.0 mg/kg/injection, schedule: Q07DX005 (ip), vehicle: saline); 11 % of control and 22 % of control (endpoint: median tumor weight (est.), dose: 30.0 mg/kg/injection, schedule: Q07DX005 (ip), vehicle: water); 1 % of control and 11 % of control (endpoint: median tumor weight (est.), dose: 45.0 mg/kg/injection, schedule: Q07DX005 (ip), vehicle: water). Further, the T/C is 1 % of control (endpoint: median tumor weight (est.), dose: 48.0 mg/kg/injection, schedule: Q07DX006 (ip), vehicle: saline); 14 % of control and 18 % of control (endpoint: median tumor weight (est.), dose: 60.0 mg/kg/injection, schedule: Q07DX005 (ip), vehicle: saline).

As for `Cc1c2cc(Cl)c3ccccc3c2c[n+]2ccccc12`, the T/C was 52 % of control under setting [1]; 52 % of control and 57 % of control under setting [2]; 61 % of control and 65 % of control under setting [3].

As to `CC1=NNC(=O)C1CCO` (stereo unspecified), the T/C by setting is: (endpoint: median tumor weight change, dose: 450.0 mg/kg/injection, schedule: Q01DX001 (ip), vehicle: Klucel (hydroxypropylcellulose) (HPC)) 102 % of control; (endpoint: median tumor weight change, dose: 900.0 mg/kg/injection, schedule: Q01DX001 (ip), vehicle: Klucel (hydroxypropylcellulose) (HPC)) 157 % of control; (endpoint: median tumor weight change, dose: 1800.0 mg/kg/injection, schedule: Q01DX001 (ip), vehicle: Klucel (hydroxypropylcellulose) (HPC)) 189 % of control; (endpoint: median tumor weight change, dose: 3600.0 mg/kg/injection, schedule: Q01DX001 (ip), vehicle: Klucel (hydroxypropylcellulose) (HPC)) 80 % of control.

As for `COc1ccc([C@@]23Oc4cc(OC)cc(OC)c4[C@]2(O)[C@H](O)[C@H](C(=O)N(C)C)[C@H]3c2ccccc2)cc1`, the T/C is, setting by setting: (endpoint: median tumor weight change, dose: 2.5 mg/kg/injection, schedule: Q01DX001 (ip), vehicle: Klucel (hydroxypropylcellulose) (HPC)) 212 % of control; (endpoint: median tumor weight change, dose: 5.0 mg/kg/injection, schedule: Q01DX001 (ip), vehicle: Klucel (hydroxypropylcellulose) (HPC)) 105 % of control; (endpoint: median tumor weight change, dose: 10.0 mg/kg/injection, schedule: Q01DX001 (ip), vehicle: Klucel (hydroxypropylcellulose) (HPC)) 72 % of control.

Consider `CCC1(O)CC2CN(CCc3c([nH]c4ccccc34)C(C(=O)OC)(c3cc4c(cc3OC)N(C)C3C(O)(C(=O)NCCSSCCNC(=O)C5(O)C(O)C6(CC)C=CCN7CCC8(c9cc(C%10(C(=O)OC)CC%11CN(CCc%12c%10[nH]c%10ccccc%12%10)CC(O)(CC)C%11)c(OC)cc9N(C)C58)C76)C(O)C5(CC)C=CCN6CCC43C65)C2)C1` (stereo unspecified), for which, under “endpoint: median tumor weight change, dose: 1.9 mg/kg/injection, schedule: Q01DX001 (ip), vehicle: saline”, the T/C was 45 % of control.

For the compound `c1ccc([C@H]2CN3CCSC3=N2)cc1`, the T/C is 107 % of control (endpoint: mean tumor weight, dose: 12.5 mg/kg/injection, schedule: Q07DX005 (ip), vehicle: saline); 105 % of control (endpoint: mean tumor weight, dose: 25.0 mg/kg/injection, schedule: Q07DX005 (ip), vehicle: saline); 92 % of control (endpoint: median tumor weight (est.), dose: 12.5 mg/kg/injection, schedule: Q07DX005 (ip), vehicle: saline).
